Experimental data reported in patent publication US20120141491A1, “METHODS AND COMPOSITIONS FOR THE TREATMENT OF CANCERS AND PATHOGENIC INFECTIONS” (priority 2009, published 2012).
“Also recorded” adds a separate entry of the source. Like-named read-outs stand apart in the source and are kept apart here.

Assays:
Assay type in all cases: cell-based
[1] = tested on: Saos-2 osteosarcoma cells expressing GFP-LC3; assay: Autophagy response by punctate localization of GFP-LC3 to autophagic vacuoles, fluorescence microscopy; conditions: for Stimulation of autophagy compared with amino acid and serum starved cells (FIG. 2G): 100 μM; for Stimulation of autophagy compared with amino acid and serum starved cells (FIG. 2G) / Enhancement of autophagy (GFP-LC3 at autophagic vacuoles): enriched (Fed) medium; for Activate Autophagy Response: Table 1; for Induction of autophagy: Table 2; for Localization of GFP-LC3 to autophagic vacuoles (FIG. 4): 100 mM Bcl-targeted compounds, fed Saos2 cells
Procedure: FIGS. 2A-2G. Activation of autophagy by Bcl-XL targeting compounds. The positions of C2 in Site 1 (FIG. 2A), C5 in Site 1 (FIG. 2B), and C8 in Site 2 (FIG. 2C) of Bcl-xl are shown by in silico molecular docking. Saos-2 osteosarcoma cells expressing GFP-LC3 were incubated in enriched (Fed) medium in the presence of C2 (FIG. 2D), C5 (FIG. 2E) and C8 (FIG. 2F) Bcl-targeted compounds. GFP-LC3 is found diffuse throughout the cytosol and nucleus when autophagy is suppressed. Ongoing autophagy can be visualized by the presence of GFP-LC3 at autophagic vacuoles (AVs) that appear as dots (arrows). […] In FIG. 2E, Saos-2 osteosarcoma cells expressing GFP-LC3 were incubated in enriched (Fed) medium in the absence and presence of Bcl-targeted compounds or in medium lacking amino acids and serum (Starved).
(§1) FIG. 4A-4F. Activation of autophagy by Bcl-targeted compounds. The localization of GFP-LC3 to autophagic vacuoles was enhanced by […] Bcl-targeted compounds in Saos-2 osteosarcoma cells. The autophagy response in fed Saos2 cells was measured in the absence and presence of anti-Bcl compounds by visualizing the punctate localization of GFP-LC3 (FIGS. 4A-4C) and RFP-GFP-LC3 (FIGS. 4D-4F) to autophagic vacuoles. In untreated fed cells, the GFP-LC3 is localized uniformly throughout the cell. […] Autophagy in cells expressing RFP-GFP-LC3 (FIGS. 4D-4F) was activated with compound B2-1. Structures containing RFP (red, FIG. 4D) and GFP (green, FIG. 4E) are autophagosomes (arrow), while RFP (red, FIG. 4D) structures are autolysosomes (arrowhead).
(§2) FIGS. 5A-5C. Characterization of proBeclin 1 compounds. Upon ranking 100 NCl compounds by in silico docking to Bcl-xl, the autophagy responses were evaluated in fed Saos-2 cells expressing GFP-LC3 (FIG. 5A). […] Cells were maintained in nutrient-rich medium in the absence and presence of Bcl-targeted compounds for 4 hr. The cells were then solubilized, Beclin 1 complex immunoprecipitated, and the Beclin 1 hound proteins identified by Western blotting (FIG. 5C). The IgG-LC is the immunoglobin light chain of the anti-Beclin 1 antibody that was used to immunoprecipitate the complex. The absence of Bcl-xl is indicative of an inhibition of Beclin 1 binding.
This was done in Saos-2 osteosarcoma cells stably expressing the autophagosome marker, GFP-LC3. In fed cells not undergoing autophagy GFP-LC3 is a soluble protein found throughout the cytosol. In amino acid and serum starved cells, autophagy is activated and GFP-LC3 becomes associated with autophagic vacuoles that can be visualize by fluorescence microscopy.
(§3) When autophagy is suppressed, GFP-LC3 distributes uniformly throughout the cellular cytoplasm (FIG. 4A). Autophagy response can be observed by visualizing the punctuate pattern of GFP-LC3 indicative of the presence of autophagic vacuoles. We can also use tandem-labeled LC3, RFP-GFP-LC3 to better assess the dynamics of the autophagy response by visualizing both autophagosomes and autolysosomes (FIG. 4D-4F). […] To further substantiate that the accumulation of GFP-LC3 structures is not due to a blockage of basal autophagy but the positive effects of the compounds on the autophagy response, the autophagy response is validated by quantitative protein turnover measures using radiolabeled amino acids (FIG. 5B). Finally, we determine whether the compound interferes with Beclin 1 binding to Bcl-xl (FIG. 5C) and Bcl-2 as we would suspect if the compound acts through the intended novel mechanism of action.

[2] = tested on: NeuT cells
Procedure: (§4) FIGS. 3A-3E. Effects of Bcl-XL targeted small compounds on the autophagy response and cell survival in NeuT cells. The positions of C4 in Site 1 (FIG. 3A), and C9 in Site 2 (FIG. 3B) of Bcl-xl are shown by in silico molecular docking. NeuT (Her2-positive breast cancer cell line) cells expressing GFP-LC3 were incubated in enriched (Fed) medium in the presence of C4 (FIG. 3C) and C9 (FIG. 3D) Bcl-targeted compounds. GFP-LC3 is found on autophagic vacuole that appear as dots (arrows). In FIG. 3E, the survival of NeuT cells was quantified after 20h of treatment with 0.1-1000 μM of Site 1 (C2 and C4) and Site 2 (C7 and C9) compounds.
(§5) Cell survival is suppressed by Bcl2-targeted compounds: Next, we examined the effects of the Bcl-xl targeted compounds C2, C4, C7, and C9 on autophagy and cell death in Her2/Neu-positive NeuT breast carcinoma cells (FIGS. 3A-E).

[3] = tested on: protein degradation; assay: Protein degradation by pulse-chase methods using 14C-valine; conditions: for Rates of protein degradation (FIG. 5B): 14C-valine pulse-chase, compared to a control compound, n=6; for Stimulate Protein Degradation: Table 1; for Proteolysis, bar coding of FIG. 5A: black bar stimulated, striped bar inhibited
Procedure: as §2, §3

[4] = tested on: Beclin 1/Bcl binding; assay: Beclin 1/Bcl binding by immunoprecipitation with anti-Beclin 1 antibodies and Western blotting; conditions: for Inhibit Beclin 1 Binding: Table 1; for Beclin 1 binding to Bcl-xl / Bcl proteins: nutrient-rich medium, 4 hr
Excerpt: FIGS. 5A-5C. Characterization of proBeclin 1 compounds. […] Cells were maintained in nutrient-rich medium in the absence and presence of Bcl-targeted compounds for 4 hr. The cells were then solubilized, Beclin 1 complex immunoprecipitated, and the Beclin 1 hound proteins identified by Western blotting (FIG. 5C). The IgG-LC is the immunoglobin light chain of the anti-Beclin 1 antibody that was used to immunoprecipitate the complex.
Autophagy response can be observed by visualizing the punctuate pattern of GFP-LC3 indicative of the presence of autophagic vacuoles. We can also use tandem-labeled LC3, RFP-GFP-LC3 to better assess the dynamics of the autophagy response by visualizing both autophagosomes and autolysosomes (FIG. 4D-4F). […] Finally, we determine whether the compound interferes with Beclin 1 binding to Bcl-xl (FIG. 5C) and Bcl-2 as we would suspect if the compound acts through the intended novel mechanism of action.

[5] = tested on: NeuT (Her2-positive breast cancer cell line) cells expressing GFP-LC3; assay: Autophagy response by GFP-LC3 localization in NeuT cells; conditions: enriched (Fed) medium
Procedure: as §4, §5

[6] = tested on: Saos2 cells expressing RFP-GFP-LC3; assay: Autophagy flux with tandem-labeled RFP-GFP-LC3 (autophagosomes and autolysosomes); conditions: fed Saos2 cells; listed as B2-1
Procedure: as §1
When autophagy is suppressed, GFP-LC3 distributes uniformly throughout the cellular cytoplasm (FIG. 4A). Autophagy response can be observed by visualizing the punctuate pattern of GFP-LC3 indicative of the presence of autophagic vacuoles. […] To further substantiate that the accumulation of GFP-LC3 structures is not due to a blockage of basal autophagy but the positive effects of the compounds on the autophagy response, the autophagy response is validated by quantitative protein turnover measures using radiolabeled amino acids (FIG. 5B). […]

SMILES | Activate Autophagy Response [1] | Induction of autophagy [1] | Induction of cell death [2] | Stimulate Protein Degradation [3] | Proteolysis, bar coding of FIG. 5A [3] | Inhibit Beclin 1 Binding [4] | Stimulation of autophagy compared with amino acid and serum starved cells (FIG. 2G) [1] | Localization of GFP-LC3 to autophagic vacuoles (FIG. 4) [1] | Enhancement of autophagy (GFP-LC3 at autophagic vacuoles) [1] | Autophagy in NeuT cells [5] | Beclin 1 binding to Bcl-xl / Bcl proteins [4] | also measured
CCCCC(CC)CN1CN(CC(CC)CCCC)CC(C)(N)C1 (stereo not drawn) [NSC17764, 5-pyrimidinamine, 1,3-bis(2-ethylhexyl)hexhydro-5-methyl-] | Yes | Induces | causes cell death | No | inhibited | No | – | – | – | – | – | Stimulation of autophagy compared with amino acid and serum starved cells (FIG. 2G) ([1]; listed as C5): promote autophagy; also recorded: stimulated autophagy to levels seen in amino acid and serum starved cells; Enhancement of autophagy (GFP-LC3 at autophagic vacuoles) ([1]; listed as Bx-11): promotes an accumulation of GFP-LC3 structures; also recorded: promote the accumulation of autophagic vacuoles; Enhancement of autophagy (GFP-LC3 at autophagic vacuoles) ([1]; listed as C5): enhanced autophagy; Rates of protein degradation (FIG. 5B) ([3]; listed as Bx-11): suppressed protein degradation; also recorded: inhibit protein degradation
Nc1c(/N=N/c2ccc(S(=O)(=O)Nc3cnccn3)cc2)cc(S(=O)(=O)O)c2ccccc12 [NSC31331] | Yes | Induces autophagy | – | – | – | Yes | promote autophagy | autophagic vacuoles are visualize as dots or ring-like structures | stimulate autophagy | induced autophagy | interfere with Beclin 1 binding | Rates of protein degradation (FIG. 5B) [3]: elevated
O=C(C[N+]12CN3CN(CN(C3)C1)C2)c1ccc2ccccc2c1.[Br-] [NSC36400] | Yes | Induces autophagy | – | – | – | No | promote autophagy | – | – | enhanced autophagy | – | Induction of cell death ([2]; Table 2, cells not given): causes cell death
CN(C)CCCN1CC2CCCCC2C1 (stereo not drawn) [NSC43537, 3-(1,3,3a,4,5,6,7,7a-octahydroisoindol-2-yl)-N,N-dimethylpropan-1-amine] | Yes | NSC 43537 Induces autophagy; not tested for the induction of cell death | – | Yes | stimulated proteolysis | Yes | – | – | stimulate autophagy | – | inhibiting Beclin 1 binding | Autophagy / autophagy flux in cells expressing RFP-GFP-LC3 [6]: activated; also recorded: autophagy flux is enhanced; Rates of protein degradation (FIG. 5B) ([3]; listed as B2-1): elevated; also recorded: stimulate
Nc1nc(S)c2ncn(C3CC(O)C(COP(=O)(O)O)O3)c2n1 (stereo not drawn) [NSC94668] | Yes | Induces autophagy | causes cell death | Yes | – | No | promote autophagy | autophagic vacuoles are visualize as dots or ring-like structures | activate autophagy | enhanced autophagy | – | Rates of protein degradation (FIG. 5B) ([3]; listed as Bx-22): elevated; also recorded: activate; Beclin 1 binding to Bcl-xl / Bcl proteins ([4]; listed as Bx-22): did not; also recorded: do not appear to affect Beclin 1 binding
